Results taken from patent US6534048B1, “Topical clonidine preparation” (Curatek Pharmaceuticals Holding, Inc., priority 1999, dated 2003).

How the values were obtained:
[1] = system: patients with postherpetic neuralgia; details: cited from earlier work

In the case of `Clc1cccc(Cl)c1NC1=NCCN1` [clonidine, N-(2,6-dichlorophenyl)-4,5-dihydro-1H-imidazol-2-amine], the side effects ([1]; single oral 0.2 mg, at the time of peak clonidine levels) is given as “troublesome levels of sedation and dizziness”, the pain relief ([1]; single oral doses of 0.2 mg, 40 patients) is given as “greater than that produced by doses of placebo or 120 mg codeine” and the side effects (eight volunteers, 3 mg or 6 mg per day for 14 consecutive days) is given as “no side effects were observed”. The mean plasma concentrations (topical daily doses of 3 mg and 6 mg clonidine) was “not more than 0.2 nanograms/ml”.
